US10945932B2, “Prebiotic oral care compositions containing carboxylic acids” (COLGATE-PALMOLIVE COMPANY, priority 2013, dated 2021)
Like-named read-outs stand apart in the source and are kept apart here.

Assays:
Tannerella forsythia [1] = test: Biofilm growth assay in BHI, crystal violet; type: cell-based; conditions: T forsythia
Protocol: (§1) Late exponential growth phase liquid cultures were prepared by transferring the respective bacterium from blood agar plates to BHI and overnight incubation at 37° C. in an anaerobic atmosphere for A. viscosus, V. parvula, F. nucleatum, P. gingivalis, P. intermedia, T. forsythia, A. naeslundii, and C. sputigena, and in a 5% CO2 environment for S. salivarius, S. sanguinis, S. mitis, A. actinomycetemcomitans, S. mutans, and S. gordonii. […] Additionally, for each bacterium tested, a background control, to correct for background staining, was added. This background control contained the bacterium tested and 0.03 weight % chlorhexidine, as an antiseptic. Plates were incubated as previously described. After 48 hrs the supernatant was removed from the wells of the plates. The wells were washed twice with 1×100 μL/PBS (phosphate buffered saline), fixed for 20 minutes with 96% vol. ethanol (96% vol. solution in water) and the biofilm retained at the bottom of the wells was stained with 1 weight % crystal violet (1 weight % solution in water). […] Quantification of the stained biofilm was performed by measuring the absorbance at 630 nm using a Multiskan Ascent microplate reader (Thermo Scientific).

Streptococcus mitis = test: Biofilm growth assay in BHI, crystal violet; type: cell-based; conditions: S mitis
Protocol: as §1

Capnocytophaga sputigena = test: Biofilm growth assay in BHI, crystal violet; type: cell-based; conditions: C sputigena
Protocol: as §1

Streptococcus sanguinis = test: Biofilm growth assay in BHI, crystal violet; type: cell-based; conditions: S sanguinis
Protocol: as §1

Streptococcus mutans = test: Biofilm growth assay in BHI, crystal violet; type: cell-based; conditions: S mutans
Protocol: as §1

Streptococcus gordonii = test: Biofilm growth assay in BHI, crystal violet; type: cell-based; conditions: S gordonii
Protocol: as §1

Veillonella parvula = test: Biofilm growth assay in BHI, crystal violet; type: cell-based; conditions: V parvula
Protocol: as §1

Streptococcus sobrinus = conditions: S sobrinus, BHI
Protocol: (§2) Late exponential growth phase liquid cultures were prepared by transferring the respective bacterium from blood agar plates to BHI and overnight incubation at 37° C. in an anaerobic atmosphere for A. viscosus, V. parvula, F. nucleatum, P. gingivalis, P. intermedia, T forsythia, A. naeslundii, and C. sputigena, and in a 5% CO2 environment for S. salivarius, S. sanguinis, S. mitis, A. actinomycetemcomitans, S. mutans, S. sobrinus and S. gordonii. Overnight cultures were transferred to BHI and adjusted to a concentration of 1×10^7 CFU/ml (colony forming units per ml) by measuring the optical density at 600 nm (OD600) (BioRad SmartSpec 3000). For each strain, 200 μl of the bacterial suspension was added to a 96-well plate containing 20 μl of the respective carboxylic acids. Final concentrations of the carboxylic acids were set to 5, 10, 20 and 25 μmol/ml. […] Plates were incubated as previously described.
(§3) For each combination of bacterium/carboxylic acid, and for each of their respective controls (i.e. the particular bacterium in the nutritionally rich medium with no carboxylic acid), the optical density was measured at 630 nm (OD630) at 0 h, 24 h and 48 h (Thermo Scientific Multiskan Ascent). Additionally, the OD630 for combinations of bacterium/carboxylic acid grown in a 5% CO2 environment were also measured every hour between 0 h and 9 h.
(§4) The experiment was carried out on three different days (thus providing 3 biological replicas) and on each day the experiment was carried out in quadruple (thus providing 4 technical replicas) for each combination of bacterium with carboxylic acid and for each control. For each day and for each combination, the average (mean) of the values obtained (as detailed above) for the four technical replicas was calculated to provide a single value for each combination on each day.

Tannerella forsythia [2] = conditions: T forsythia, BHI
Protocol: as §2, §3, §4

Prevotella intermedia = conditions: P intermedia, BHI
Protocol: as §2, §3, §4

[3] = system: beneficial oral bacteria and pathogenic oral bacteria; conditions: over 48 hours, threshold value of 1.25
From the text: The beneficial oral bacteria tested were Streptococcus mitis, Streptococcus salivarius, Streptococcus sanguinis, Actinomyces viscosus, Streptococcus gordonii, Capnocytophaga sputigena, Actinomyces naeslundii and Veillonella parvula. The pathogenic oral bacteria tested were Streptococcus mutans, Prevotella intermedia, Porphyromonas gingivalis, Fusobacterium nucleatum, Tannerella forsythia, Aggregatibacter actinomycetemcomitans and Streptococcus sobrinus.
as §2, §3, §4
This value was selected in order to exclude low-stimulating metabolites and avoid false positive results.

N[C@@H](CC(=O)O)C(=O)O [L-aspartic acid]
biofilm growth, OD at 630 nm (crystal violet) at 48 hrs divided by OD of control (control = 1) (Tannerella forsythia [1]; 20 μmol/ml): 1.0055 | biofilm growth, OD at 630 nm (crystal violet) at 48 hrs divided by OD of control (control = 1) (Tannerella forsythia [1]; 25 μmol/ml): 0.9659 | biofilm growth, OD at 630 nm (crystal violet) at 48 hrs divided by OD of control (control = 1) (Streptococcus mitis; 5 μmol/ml): 1.5188 | biofilm growth, OD at 630 nm (crystal violet) at 48 hrs divided by OD of control (control = 1) (Streptococcus mitis; 10 μmol/ml): 1.6156 | biofilm growth, OD at 630 nm (crystal violet) at 48 hrs divided by OD of control (control = 1) (Streptococcus mitis; 20 μmol/ml): 1.5402 | biofilm growth, OD at 630 nm (crystal violet) at 48 hrs divided by OD of control (control = 1) (Streptococcus mitis; 25 μmol/ml): 1.7351 | biofilm growth, OD at 630 nm (crystal violet) at 48 hrs divided by OD of control (control = 1) (Capnocytophaga sputigena; 5 μmol/ml): 0.9508 | biofilm growth, OD at 630 nm (crystal violet) at 48 hrs divided by OD of control (control = 1) (Capnocytophaga sputigena; 10 μmol/ml): 0.9546 | biofilm growth, OD at 630 nm (crystal violet) at 48 hrs divided by OD of control (control = 1) (Capnocytophaga sputigena; 20 μmol/ml): 0.9747 | biofilm growth, OD at 630 nm (crystal violet) at 48 hrs divided by OD of control (control = 1) (Capnocytophaga sputigena; 25 μmol/ml): 0.9785 | biofilm growth, OD at 630 nm (crystal violet) at 48 hrs divided by OD of control (control = 1) (Streptococcus sanguinis; 5 μmol/ml): 1.5035 | biofilm growth, OD at 630 nm (crystal violet) at 48 hrs divided by OD of control (control = 1) (Streptococcus sanguinis; 10 μmol/ml): 1.7477 | biofilm growth, OD at 630 nm (crystal violet) at 48 hrs divided by OD of control (control = 1) (Streptococcus sanguinis; 20 μmol/ml): 2.0414 | biofilm growth, OD at 630 nm (crystal violet) at 48 hrs divided by OD of control (control = 1) (Streptococcus sanguinis; 25 μmol/ml): 2.0560 | biofilm growth, OD at 630 nm (crystal violet) at 48 hrs divided by OD of control (control = 1) (Streptococcus mutans; 5 μmol/ml): 0.0000 | biofilm growth, OD at 630 nm (crystal violet) at 48 hrs divided by OD of control (control = 1) (Streptococcus mutans; 10 μmol/ml): 0.0000 | biofilm growth, OD at 630 nm (crystal violet) at 48 hrs divided by OD of control (control = 1) (Streptococcus mutans; 20 μmol/ml): 0.1923 | biofilm growth, OD at 630 nm (crystal violet) at 48 hrs divided by OD of control (control = 1) (Streptococcus mutans; 25 μmol/ml): 0.0000 | biofilm growth, OD at 630 nm (crystal violet) at 48 hrs divided by OD of control (control = 1) (Streptococcus gordonii; 5 μmol/ml): 1.3455 | biofilm growth, OD at 630 nm (crystal violet) at 48 hrs divided by OD of control (control = 1) (Streptococcus gordonii; 10 μmol/ml): 1.6702 | biofilm growth, OD at 630 nm (crystal violet) at 48 hrs divided by OD of control (control = 1) (Streptococcus gordonii; 20 μmol/ml): 2.1065 | biofilm growth, OD at 630 nm (crystal violet) at 48 hrs divided by OD of control (control = 1) (Streptococcus gordonii; 25 μmol/ml): 2.2320 | biofilm growth, OD at 630 nm (crystal violet) at 48 hrs divided by OD of control (control = 1) (Veillonella parvula; 5 μmol/ml): 1.1641 | biofilm growth, OD at 630 nm (crystal violet) at 48 hrs divided by OD of control (control = 1) (Veillonella parvula; 10 μmol/ml): 1.2799 | biofilm growth, OD at 630 nm (crystal violet) at 48 hrs divided by OD of control (control = 1) (Veillonella parvula; 20 μmol/ml): 1.5344 | biofilm growth, OD at 630 nm (crystal violet) at 48 hrs divided by OD of control (control = 1) (Veillonella parvula; 25 μmol/ml): 1.6960 | extent of growth, maximal OD630 over 48 hr divided by maximal OD of control (control = 1) (Streptococcus sobrinus; 5 μmol/ml): 0.9714 | extent of growth, maximal OD630 over 48 hr divided by maximal OD of control (control = 1) (Streptococcus sobrinus; 10 μmol/ml): 0.9741 | extent of growth, maximal OD630 over 48 hr divided by maximal OD of control (control = 1) (Streptococcus sobrinus; 20 μmol/ml): 0.9458 | extent of growth, maximal OD630 over 48 hr divided by maximal OD of control (control = 1) (Streptococcus sobrinus; 25 μmol/ml): 0.9644 | extent of growth, maximal OD630 over 48 hr divided by maximal OD of control (control = 1) (Tannerella forsythia [2]; 5 μmol/ml): 0.9947 | extent of growth, maximal OD630 over 48 hr divided by maximal OD of control (control = 1) (Tannerella forsythia [2]; 10 μmol/ml): 0.9717 | extent of growth, maximal OD630 over 48 hr divided by maximal OD of control (control = 1) (Tannerella forsythia [2]; 20 μmol/ml): 1.0111 | extent of growth, maximal OD630 over 48 hr divided by maximal OD of control (control = 1) (Tannerella forsythia [2]; 25 μmol/ml): 0.9935 | extent of growth, maximal OD630 over 48 hr divided by maximal OD of control (control = 1) (Prevotella intermedia; 5 μmol/ml): 1.0755 | extent of growth, maximal OD630 over 48 hr divided by maximal OD of control (control = 1) (Prevotella intermedia; 10 μmol/ml): 1.1717 | extent of growth, maximal OD630 over 48 hr divided by maximal OD of control (control = 1) (Prevotella intermedia; 20 μmol/ml): 1.1438 | extent of growth, maximal OD630 over 48 hr divided by maximal OD of control (control = 1) (Prevotella intermedia; 25 μmol/ml): 1.1396 | prebiotic effect (extent of growth) ([3]; 10 μmol/ml): exhibited prebiotic effects | prebiotic effect (extent of growth) ([3]; 20 μmol/ml): exhibited prebiotic effects
